Assay results published in PubChem BioAssay (NCI).
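Cultured in 96-well plates, cells were exposed to test compound for 48 hours across five concentrations. Abbreviation: GI50, concentration required for 50% inhibition of growth. At the TGI there is no net growth.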

Assays:
Experiment in all cases: NCI-60 cell line screen, 48 h
786-0 renal = system: 786-0 renal
A498 renal = system: A498 renal
A549 NSCLC = system: A549 NSCLC
ACHN renal = system: ACHN renal
BT-549 breast = system: BT-549 breast
CAKI-1 renal = system: CAKI-1 renal
CCRF-CEM leukemia = system: CCRF-CEM leukemia
COLO 205 colon = system: COLO 205 colon
DU-145 prostate = system: DU-145 prostate
EKVX NSCLC = system: EKVX NSCLC
HCC-2998 colon = system: HCC-2998 colon
HCT-116 colon = system: HCT-116 colon
HCT-15 colon = system: HCT-15 colon
HL-60(TB) leukemia = system: HL-60(TB) leukemia
HOP-62 NSCLC = system: HOP-62 NSCLC
HOP-92 NSCLC = system: HOP-92 NSCLC
HS 578T breast = system: HS 578T breast
HT29 colon = system: HT29 colon
IGROV1 ovarian = system: IGROV1 ovarian
K-562 leukemia = system: K-562 leukemia
KM12 colon = system: KM12 colon
LOX IMVI melanoma = system: LOX IMVI melanoma
M14 melanoma = system: M14 melanoma
MALME-3M melanoma = system: MALME-3M melanoma
MCF7 breast = system: MCF7 breast
MDA-MB-231 breast = system: MDA-MB-231 breast
MDA-MB-435 = system: MDA-MB-435
MOLT-4 leukemia = system: MOLT-4 leukemia
NCI-H226 lung = system: NCI-H226 lung

CC1(C)CC([P+](c2ccccc2)(c2ccccc2)c2ccccc2)=NN1 gave a GI50 (786-0 renal) of 26.6 µM, a TGI (786-0 renal) greater than 100 µM and a GI50 (A498 renal) of 4.24 µM. For the same compound, the TGI (A498 renal) was 35.7 µM, the GI50 (A549 NSCLC) was 5.1 µM and the TGI (A549 NSCLC) was greater than 100 µM. It also gave a GI50 (ACHN renal) of 60.2 µM, a TGI (ACHN renal) greater than 100 µM and a GI50 (BT-549 breast) of 1.03 µM. It also gave a TGI (BT-549 breast) of 4.42 µM, a GI50 (CAKI-1 renal) greater than 100 µM and a TGI (CAKI-1 renal) greater than 100 µM. It also gave a GI50 (CCRF-CEM leukemia) of 8.36 µM, a TGI (CCRF-CEM leukemia) greater than 100 µM and a GI50 (COLO 205 colon) of 1.44 µM. The TGI (COLO 205 colon) was 3.36 µM, the GI50 (DU-145 prostate) was 4.34 µM and the TGI (DU-145 prostate) was greater than 100 µM. It also gave a GI50 (EKVX NSCLC) of 2.42 µM, a TGI (EKVX NSCLC) greater than 100 µM and a GI50 (HCC-2998 colon) of 2.79 µM. The TGI (HCC-2998 colon) was greater than 100 µM, the GI50 (HCT-116 colon) was 3.04 µM and the TGI (HCT-116 colon) was greater than 100 µM. For the same compound, the GI50 (HCT-15 colon) was greater than 100 µM, the TGI (HCT-15 colon) was greater than 100 µM and the GI50 (HL-60(TB) leukemia) was 1.91 µM. It also gave a TGI (HL-60(TB) leukemia) of 9.19 µM, a GI50 (HOP-62 NSCLC) of 7.4 µM and a TGI (HOP-62 NSCLC) greater than 100 µM. The GI50 (HOP-92 NSCLC) was 3.75 µM, the TGI (HOP-92 NSCLC) was 71.9 µM and the GI50 (HS 578T breast) was 4.96 µM. For the same compound, the TGI (HS 578T breast) was greater than 100 µM, the GI50 (HT29 colon) was 3.29 µM and the TGI (HT29 colon) was greater than 100 µM. The GI50 (IGROV1 ovarian) was 6.47 µM, the TGI (IGROV1 ovarian) was greater than 100 µM and the GI50 (K-562 leukemia) was 3.55 µM. It also gave a TGI (K-562 leukemia) greater than 100 µM, a GI50 (KM12 colon) of 1.89 µM and a TGI (KM12 colon) of 45.9 µM. The GI50 (LOX IMVI melanoma) was 3.74 µM, the TGI (LOX IMVI melanoma) was greater than 100 µM and the GI50 (M14 melanoma) was 11.4 µM. The TGI (M14 melanoma) was greater than 100 µM, the GI50 (MALME-3M melanoma) was 3.43 µM and the TGI (MALME-3M melanoma) was greater than 100 µM. For the same compound, the GI50 (MCF7 breast) was 2.46 µM, the TGI (MCF7 breast) was greater than 100 µM and the GI50 (MDA-MB-231 breast) was 13.7 µM. The TGI (MDA-MB-231 breast) was greater than 100 µM, the GI50 (MDA-MB-435) was 2.79 µM and the TGI (MDA-MB-435) was greater than 100 µM. For the same compound, the GI50 (MOLT-4 leukemia) was 6.03 µM, the TGI (MOLT-4 leukemia) was greater than 100 µM and the GI50 (NCI-H226 lung) was 5.53 µM.
